# ChEMBL document CHEMBL1135026, “Synthesis of fluorescent biochemical tools related to the 2-azetidinone class of cholesterol absorption inhibitors” (2002)
# Assays:
# Type in all cases: functional
# [1] = system: Rattus norvegicus; assay: Percent inhibition of 14C]cholesterol absorption into plasma using cholesterol absorption assay in rats at the dose of 100 ug/Kg
# [2] = system: Rattus norvegicus; assay: Percent inhibition of 14C]cholesterol absorption into plasma using cholesterol absorption assay in rats at the dose of 30 ug/Kg
# [3] = system: Rattus norvegicus; assay: Percent inhibition of 14C]cholesterol absorption into plasma using cholesterol absorption assay in rats at the dose of 300 ug/Kg
# [4] = system: Rattus norvegicus; assay: Percent inhibition of 14C]cholesterol absorption into plasma using cholesterol absorption assay in rats at the dose of 186 ug/Kg
# [5] = system: Rattus norvegicus; assay: Percent inhibition of 14C]cholesterol absorption into plasma using cholesterol absorption assay in rats at the dose of 56 ug/Kg
# [6] = system: Rattus norvegicus; assay: Percent inhibition of 14C]cholesterol absorption into plasma using cholesterol absorption assay in rats at the dose of 10 ug/Kg
# [7] = organism: Rattus norvegicus; assay: Compound was tested for cholesterol absorption inhibition in rats by bolus injection 1 mL) via the intestinal catheter into the small intestine, by cholesterol absorption assay; conditions: read-out: ID50 (the source's name)
# [8] = system: Rattus norvegicus; assay: Percent inhibition of 14C]cholesterol absorption into plasma using cholesterol absorption assay in rats at the dose of 3 ug/Kg
# [9] = system: Rattus norvegicus; assay: Percent inhibition of 14C]cholesterol absorption into plasma using cholesterol absorption assay in rats at the dose of 2000 ug/Kg
SMILES,inhibition in vivo at 0.1 mg/kg [1],inhibition in vivo at 0.03 mg/kg [2],inhibition in vivo at 0.01 mg/kg [6],other results
Cc1cc(C)n(B(F)F)c1/C=C1/C=CC(CCC(=O)NCC#Cc2ccc(N3C(=O)[C@H](CC[C@H](O)c4ccc(F)cc4)[C@H]3c3ccc(O[C@@H]4O[C@H](C(=O)O)[C@@H](O)[C@H](O)[C@H]4O)cc3)cc2)=N1,80%,58%,–,inhibition in vivo at 0.3 mg/kg [3]: 92%
O=C(CCCCCNC(=O)c1ccc(-c2c3ccc(=O)cc-3oc3cc(O)ccc23)c(C(=O)O)c1)NCC#Cc1ccc(N2C(=O)[C@H](CC[C@H](O)c3ccc(F)cc3)[C@H]2c2ccc(O[C@@H]3O[C@H](C(=O)O)[C@@H](O)[C@H](O)[C@H]3O)cc2)cc1,–,85%,–,inhibition in vivo at 0.186 mg/kg [4]: 88%; inhibition in vivo at 0.056 mg/kg [5]: 79%
O=C(O)[C@H]1O[C@@H](Oc2ccc([C@@H]3[C@@H](CC[C@H](O)c4ccc(F)cc4)C(=O)N3c3ccc(F)cc3)cc2)[C@H](O)[C@@H](O)[C@@H]1O,–,–,91%,–
O=C(O)[C@H]1O[C@@H](Oc2ccc([C@@H]3[C@@H](CC[C@H](O)c4ccc(F)cc4)C(=O)N3c3cccc4nsnc34)cc2)[C@H](O)[C@@H](O)[C@@H]1O,85%,83%,66%,–
O=C1[C@H](CC[C@H](O)c2ccc(F)cc2)[C@@H](c2ccc(O)cc2)N1c1ccc(F)cc1 [EZETIMIBE],–,–,74%,ED50 [7]: 1.6 µg/kg; inhibition in vivo at 0.003 mg/kg [8]: 63%
COc1ccc([C@@H]2[C@@H](CCCc3ccccc3)C(=O)N2c2ccc(OC)cc2)cc1 [SCH-48461],–,–,–,inhibition in vivo at 2 mg/kg [9]: 95%
